Values quoted from earlier work in patent US20070298096A1, “Analgesic/Antipyretic Compositions for Enhanced Absorption” (priority 2004, published 2007).
Read-outs that look alike come from different tables or passages of the source.

- tmax (1 gram of APAP administered with 4 grams of calcium carbonate): 1.9 h
- tmax (APAP alone, 1 gram): 1.4 h
- time for the plasma level of APAP to reach its maximum, longer than APAP alone (co-administered with the calcium carbonate): ½
Compound: CC(=O)Nc1ccc(O)cc1 [APAP, acetaminophen]
